From ChEMBL document CHEMBL3885881, “DrugMatrix”

Species: Rattus norvegicus
Assay: DrugMatrix - Regimen: Daily Repeat
Type: toxicity, organism-based, Sprague-Dawley
Set-up: regimen Daily Repeat, gender Male, age 6-8 weeks
Settings: in vivo, po, 38 mg/kg, route oral GAVAGE, dose level Low, vehicle 100 % WATER; for BASOPHIL / EOSINOPHIL / ERYTHROCYTE COUNT / HEMATOCRIT / HEMOGLOBIN / LEUKOCYTE COUNT / LYMPHOCYTE / MEAN CORPUSCULAR HEMOGLOBIN / MEAN CORPUSCULAR HEMOGLOBIN CONCENTRATION / MEAN CORPUSCULAR VOLUME / MONOCYTE / NEUTROPHIL / PLATELET COUNT: tissue Blood; for ALANINE AMINOTRANSFERASE / ALBUMIN / ALKALINE PHOSPHATASE / ASPARTATE AMINOTRANSFERASE / BLOOD UREA NITROGEN / CARBON DIOXIDE / CHLORIDE / CHOLESTEROL / CREATINE PHOSPHOKINASE / CREATININE / GLUCOSE / LACTATE DEHYDROGENASE / LIPASE / PHOSPHORUS / POTASSIUM / SODIUM / TOTAL BILIRUBIN / TOTAL PROTEIN / URIC ACID: tissue Plasma

O=C(O)C1CC1 [CYCLOPROPANE CARBOXYLIC ACID]
BASOPHIL (72 h, time 3 day): 0%
EOSINOPHIL (72 h, time 3 day): 0.67%
ERYTHROCYTE COUNT (72 h, time 3 day): 7.06 x10E6/uL
HEMATOCRIT (72 h, time 3 day): 43.67%
HEMOGLOBIN (72 h, time 3 day): 14.6 G/DL
LEUKOCYTE COUNT (72 h, time 3 day): 8.63 x10E3/uL
LYMPHOCYTE (72 h, time 3 day): 83.67%
MEAN CORPUSCULAR HEMOGLOBIN (72 h, time 3 day): 20.67 pg
MEAN CORPUSCULAR HEMOGLOBIN CONCENTRATION (72 h, time 3 day): 33.47 G/DL
MEAN CORPUSCULAR VOLUME (72 h, time 3 day): 61.77 fL
MONOCYTE (72 h, time 3 day): 2.33%
NEUTROPHIL (72 h, time 3 day): 13.33%
PLATELET COUNT (72 h, time 3 day): 1012 x10E3/uL
ALANINE AMINOTRANSFERASE (72 h, time 3 day): 44.67 u/L
ALBUMIN (72 h, time 3 day): 4.37 G/DL
ALKALINE PHOSPHATASE (72 h, time 3 day): 346.67 u/L
ASPARTATE AMINOTRANSFERASE (72 h, time 3 day): 72.33 u/L
BLOOD UREA NITROGEN (72 h, time 3 day): 15 mg/dL
CARBON DIOXIDE (72 h, time 3 day): 23 mmol/L
CHLORIDE (72 h, time 3 day): 103.67 MEQ/L
CHOLESTEROL (72 h, time 3 day): 65.67 mg/dL
CREATINE PHOSPHOKINASE (72 h, time 3 day): 241.33 u/L
CREATININE (72 h, time 3 day): 0.3 mg/dL
GLUCOSE (72 h, time 3 day): 151 mg/dL
LACTATE DEHYDROGENASE (72 h, time 3 day): 152.33 u/L
LIPASE (72 h, time 3 day): 9 u/L
PHOSPHORUS (72 h, time 3 day): 9.83 mg/dL
POTASSIUM (72 h, time 3 day): 5.7 MEQ/L
SODIUM (72 h, time 3 day): 145.67 MEQ/L
TOTAL BILIRUBIN (72 h, time 3 day): 0.1 mg/dL
TOTAL PROTEIN (72 h, time 3 day): 6.03 G/DL
URIC ACID (72 h, time 3 day): 1.1 mg/dL
BASOPHIL (120 h, time 5 day): 0.33%
EOSINOPHIL (120 h, time 5 day): 1%
ERYTHROCYTE COUNT (120 h, time 5 day): 7.12 x10E6/uL
HEMATOCRIT (120 h, time 5 day): 44.63%
HEMOGLOBIN (120 h, time 5 day): 14.4 G/DL
LEUKOCYTE COUNT (120 h, time 5 day): 10.9 x10E3/uL
LYMPHOCYTE (120 h, time 5 day): 85%
MEAN CORPUSCULAR HEMOGLOBIN (120 h, time 5 day): 20.2 pg
MEAN CORPUSCULAR HEMOGLOBIN CONCENTRATION (120 h, time 5 day): 32.27 G/DL
MEAN CORPUSCULAR VOLUME (120 h, time 5 day): 62.67 fL
MONOCYTE (120 h, time 5 day): 2.33%
NEUTROPHIL (120 h, time 5 day): 12.33%
PLATELET COUNT (120 h, time 5 day): 970.67 x10E3/uL
ALANINE AMINOTRANSFERASE (120 h, time 5 day): 47.33 u/L
ALBUMIN (120 h, time 5 day): 4.6 G/DL
ALKALINE PHOSPHATASE (120 h, time 5 day): 373.67 u/L
ASPARTATE AMINOTRANSFERASE (120 h, time 5 day): 86 u/L
BLOOD UREA NITROGEN (120 h, time 5 day): 17.33 mg/dL
CARBON DIOXIDE (120 h, time 5 day): 20.67 mmol/L
CHLORIDE (120 h, time 5 day): 99.33 MEQ/L
CHOLESTEROL (120 h, time 5 day): 73.67 mg/dL
CREATINE PHOSPHOKINASE (120 h, time 5 day): 418 u/L
CREATININE (120 h, time 5 day): 0.3 mg/dL
GLUCOSE (120 h, time 5 day): 133.33 mg/dL
LACTATE DEHYDROGENASE (120 h, time 5 day): 454 u/L
LIPASE (120 h, time 5 day): 9 u/L
PHOSPHORUS (120 h, time 5 day): 10.13 mg/dL
POTASSIUM (120 h, time 5 day): 5.37 MEQ/L
SODIUM (120 h, time 5 day): 143.33 MEQ/L
TOTAL BILIRUBIN (120 h, time 5 day): 0.1 mg/dL
TOTAL PROTEIN (120 h, time 5 day): 6.53 G/DL
URIC ACID (120 h, time 5 day): 1.03 mg/dL
